Data on one molecule can be found in US4060652A (priority 1976, dated 1977).

The subject of this assay is phrenico-diaphragm preparations. The experiment in a line: Block of nervomuscular conduction in isolated phrenico-diaphragm preparations. The following applies: rat, isolated by the Bulbring method. Also on record: species or system rats. An excerpt: In experiments on phrenico-diaphragm preparations of rats, isolated by the Bulbring method, the block of the nervomuscular conduction developed under the action of Tercuronium in a concentration of 2 × 10^-6 m/litre.

As for `CC[N+](CC)(CC)c1ccc(-c2ccc(-c3ccc([N+](CC)(CC)CC)cc3)cc2)cc1` [Tercuronium, p,p"-bis-triethylammonio-n-terphenyl dibenzenesulphonate], the “concentration blocking nervomuscular conduction” value is listed as 2 × 10^-6 m/litre.
